Where “and” joins values, the source holds several entries; their conditions need not be identical. Identical values can stand only once.
Molecular target: T1, N-terminally GST-tagged human full length recombinant Mps-1 kinase (Homo sapiens, UniProt P33981)
T1 construct: N-terminally GST-tagged human full length recombinant Mps-1 kinase; purchased Invitrogen, Karslruhe, Germany PV4071
T1 sequence (P33981 1-857): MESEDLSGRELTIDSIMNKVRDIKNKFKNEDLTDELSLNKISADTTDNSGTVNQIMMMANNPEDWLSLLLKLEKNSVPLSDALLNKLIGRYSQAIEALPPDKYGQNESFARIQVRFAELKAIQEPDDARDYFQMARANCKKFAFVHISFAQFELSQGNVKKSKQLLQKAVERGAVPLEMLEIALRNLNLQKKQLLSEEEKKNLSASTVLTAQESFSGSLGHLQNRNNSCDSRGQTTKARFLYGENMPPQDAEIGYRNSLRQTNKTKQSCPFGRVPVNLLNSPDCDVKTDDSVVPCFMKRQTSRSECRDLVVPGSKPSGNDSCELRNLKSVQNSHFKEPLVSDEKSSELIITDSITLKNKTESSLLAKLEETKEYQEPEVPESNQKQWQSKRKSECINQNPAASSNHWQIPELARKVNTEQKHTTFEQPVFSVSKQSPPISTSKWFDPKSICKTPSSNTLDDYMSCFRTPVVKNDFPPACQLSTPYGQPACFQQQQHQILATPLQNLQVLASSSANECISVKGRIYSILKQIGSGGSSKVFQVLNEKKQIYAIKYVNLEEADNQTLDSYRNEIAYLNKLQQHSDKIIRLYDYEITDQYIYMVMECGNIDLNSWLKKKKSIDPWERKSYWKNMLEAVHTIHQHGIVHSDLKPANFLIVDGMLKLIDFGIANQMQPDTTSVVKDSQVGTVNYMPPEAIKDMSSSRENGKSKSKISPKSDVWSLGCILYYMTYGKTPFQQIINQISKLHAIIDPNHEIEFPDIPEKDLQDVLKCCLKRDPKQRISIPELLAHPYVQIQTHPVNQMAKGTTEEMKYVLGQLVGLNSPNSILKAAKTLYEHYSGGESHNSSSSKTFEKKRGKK
Assay: Mps-1 kinase assay (TR-FRET)
Format: biochemical
Conditions: Mps1 IC50 [nM], 10 μM ATP, 1 μM peptide substrate, 60 min at 22° C.
Summary of the method: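 GST-Mps-1 (full length, N-term tag) ~1 nM final, linear-range adjusted per lot; biotinylated peptide substrate. Detection: Eu-anti-pSer/Thr donor → SA-XLent acceptor TR-FRET, 1 h, 22° C. Inhibition of kinase activity.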

How did the IC50 turn out when Cc1cc(-c2cnc3c(NCc4ccn(C)n4)cc(Oc4cccc(F)c4)nn23)ccc1C(=O)NC1CC1 [Example 488, N-cyclopropyl-4-[6-(3-fluoro-phenoxy)-8-{[(1-methyl-1H-pyrazol-3-yl)methyl]amino}imidazo[1,2-b]pyridazin-3-yl]-2-methylbenzamide] was run?
Its IC50 is 0.1 nM.

Cc1cc(-c2cnc3c(NCCC(F)(F)F)cc(Nc4ccc(F)cc4O)nn23)ccc1C(=O)NC1CC1 [Example 396, N-cyclopropyl-4-{6-[(4-fluoro-2-hydroxyphenyl)amino]-8-[(3,3,3-trifluoropropyl)amino]imidazo[1,2-b]pyridazin-3-yl}-2-methylbenzamide] was tested. Which IC50 did it give?
Its IC50 is 0.1 nM and 0.3 nM.

COc1ccc(Oc2cc(NCC(C)(C)O)c3ncc(-c4ccc(C(=O)NC5CC5)c(C)c4)n3n2)cc1 [Example 86, N-cyclopropyl-4-{8-[(2-hydroxy-2-methylpropyl)amino]-6-(4-methoxyphenoxy)imidazo[1,2-b]pyridazin-3-yl}-2-methylbenzamide] was tested. Which IC50 did it give?
The IC50 was 0.1 nM.

For Cc1cc(-c2cnc3c(NCC(C)(C)O)cc(Nc4ccccc4O)nn23)ccc1C(=O)NC1CC1 [Example 431, N-cyclopropyl-4-{8-[(2-hydroxy-2-methylpropyl)amino]-6-[(2-hydroxyphenyl)amino]imidazo[1,2-b]pyridazin-3-yl}-2-methylbenzamide], which IC50 is on record?
The IC50 was 0.1 nM.

For Cc1cc(Sc2cc(NCC(C)(C)O)c3ncc(-c4ccc(C(=O)NC5CC5)c(C)c4)n3n2)ccc1O [Example 63, N-cyclopropyl-4-{6-[(4-hydroxy-3-methylphenyl)sulfanyl]-8-[(2-hydroxy-2-methylpropyl)amino]imidazo[1,2-b]pyridazin-3-yl}-2-methylbenzamide], which IC50 is on record?
Its IC50 is < 0.1 nM.

Cc1cc(-c2cnc3c(NCCC(F)(F)F)cc(Nc4ccc(Cl)c(F)c4)nn23)ccc1C(=O)NC1CC1 [Example 372, 4-{6-[(4-chloro-3-fluorophenyl)amino]-8-[(3,3,3-trifluoropropyl)amino]imidazo[1,2-b]pyridazin-3-yl}-N-cyclopropyl-2-methylbenzamide] was tested. Which IC50 did it give?
The IC50 was 0.2 nM.

For Cc1cc(-c2cnc3c(NCC(C)(C)O)cc(Nc4cccc(F)c4F)nn23)ccc1C(=O)NC1CC1 [Example 352, N-cyclopropyl-4-{6-[(2,3-difluorophenyl)amino]-8-[(2-hydroxy-2-methylpropyl)amino]imidazo[1,2-b]pyridazin-3-yl}-2-methylbenzamide], which IC50 is on record?
The IC50 was 0.2 nM.

For Cc1cc(-c2cnc3c(NCCN4CCOCC4)cc(N(C)c4ccccc4O)nn23)ccc1C(=O)NC1CC1 [Example 539, N-cyclopropyl-4-(6-[(2-hydroxy-phenyl)(methyl)amino]-8-{[2-(morpholin-4-yl)ethyl]amino}imidazo[1,2-b]pyridazin-3-yl)-2-methylbenzamide], which IC50 is on record?
Its IC50 is 0.2 nM.

Cc1cc(-c2cnc3c(NCC(C)(C)O)cc(Sc4ccc(Cl)cc4CO)nn23)ccc1C(=O)NC1CC1 [Example 393, 4-(6-{[4-chloro-2-(hydroxymethyl)phenyl]sulfanyl}-8-[(2-hydroxy-2-methylpropyl)amino]imidazo[1,2-b]pyridazin-3-yl)-N-cyclopropyl-2-methylbenzamide] was tested. Which IC50 did it give?
Its IC50 is 2.3 nM.

With Cc1cc(-c2cnc3c(NCC(C)(C)O)cc(N4CCCCC4)nn23)ccc1C(=O)NC1CC1 [Example 337, N-cyclopropyl-4-{8-[(2-hydroxy-2-methylpropyl)amino]-6-(piperidin-1-yl)imidazo[1,2-b]pyridazin-3-yl}-2-methyl-benzamide] as the compound, how does the IC50 read?
Its IC50 is 3.9 nM.

How did the IC50 turn out when Cc1cc(-c2cnc3c(NCC(C)(C)O)cc(-c4ccccc4CF)nn23)ccc1C(=O)NC1CC1 [Example 222, N-cyclopropyl-4-{6-[2-(fluoromethyl)phenyl]-8-[(2-hydroxy-2-methylpropyl)amino]imidazo[1,2-b]pyridazin-3-yl}-2-methylbenzamide] was run?
The IC50 was 2.1 nM.

Cc1cc(-c2cnc3c(NCC4COCCO4)cc(-c4ccncc4)nn23)ccc1C(=O)NC1CC1 (racemic) [Example 36, (RS)—N-cyclopropyl-4-{8-[(1,4-dioxan-2-ylmethyl)amino]-6-(pyridin-4-yl)imidazo[1,2-b]pyridazin-3-yl}-2-methylbenzamide] was tested. Which IC50 did it give?
The IC50 was 3 nM.

For CC(C)CNc1cc(-c2cccc(CO)c2)nn2c(-c3ccc(C(=O)NC4CC4)cc3)cnc12 [Example 103, N-cyclopropyl-4-{6-[3-(hydroxymethyl)phenyl]-8-[(2-methylpropyl)amino]imidazo[1,2-b]pyridazin-3-yl}benzamide], which IC50 is on record?
The IC50 was < 1 nM.

How did the IC50 turn out when Cc1cc(-c2cnc3c(NCC(C)C)cc(-c4ccnn4C)nn23)ccc1C(=O)NC1CC1 [Example 202, N-cyclopropyl-2-methyl-4-{8-[(2-methylpropyl)amino]-6-(1-methyl-1H-pyrazol-5-yl)imidazo[1,2-b]pyridazin-3-yl}benzamide] was run?
Its IC50 is 1.5 nM.

How did the IC50 turn out when Cc1cc(-c2cnc3c(NC[C@@H]4CCCO4)cc(-c4ccncc4)nn23)ccc1C(=O)NC1CC1 [Example 31, N-cyclopropyl-2-methyl-4-[6-(pyridin-4-yl)-8-{[(2S)-tetrahydrofuran-2-ylmethyl]amino}imidazo[1,2-b]pyridazin-3-yl]benzamide] was run?
Its IC50 is 1.1 nM.

Cc1cc(-c2cnc3c(NC[C@H]4CCCO4)cc(-c4ccncc4)nn23)ccc1C(=O)NC1CC1 [Example 35, N-cyclopropyl-2-methyl-4-[6-(pyridin-4-yl)-8-{[(2R)-tetrahydrofuran-2-ylmethyl]amino}imidazo[1,2-b]pyridazin-3-yl]benzamide] was tested. Which IC50 did it give?
The IC50 was 2.5 nM.

Cc1cc(-c2cnc3c(NCCC(F)(F)F)cc(Sc4nncn4C)nn23)ccc1C(=O)NC1CC1 [Example 419, N-cyclopropyl-2-methyl-4-{6-[(4-methyl-4H-1,2,4-triazol-3-yl)sulfanyl]-8-[(3,3,3-trifluoropropyl)amino]imidazo[1,2-b]pyridazin-3-yl}benzamide] was tested. Which IC50 did it give?
The IC50 was 3.5 nM.

With Cc1cc(-c2cnc3c(NCC(C)(C)N(C)C)cc(Oc4cccc(F)c4)nn23)ccc1C(=O)NC1CC1 [Example 497, N-cyclopropyl-4-[8-{[2-(dimethyl-amino)-2-methylpropyl]amino}-6-(3-fluorophenoxy)imidazo [1,2-b]pyridazin-3-yl]-2-methyl-benzamide] as the compound, how does the IC50 read?
Its IC50 is 0.2 nM.

With Cc1cc(-c2cnc3c(NCC(C)(C)O)cc(Sc4ccc(C(F)(F)F)cc4)nn23)ccc1C(=O)NC1CC1 [Example 242, N-cyclopropyl-4-(8-[(2-hydroxy-2-methylpropyl)amino]-6-{[4-(trifluoromethyl)phenyl]sulfanyl}imidazo[1,2-b]pyridazin-3-yl)-2-methylbenzamide] as the compound, how does the IC50 read?
The IC50 was 3.7 nM.

With Cc1nnc(-c2ccc(-c3cc(NCC(C)C)c4ncc(-c5ccc(C(=O)NC6CC6)cc5)n4n3)cc2)o1 [Example 148, N-cyclopropyl-4-{6-[4-(5-methyl-1,3,4-oxadiazol-2-yl)phenyl]-8-[(2-methylpropyl)amino]imidazo[1,2-b]pyridazin-3-yl}benzamide] as the compound, how does the IC50 read?
The IC50 was 1.5 nM.

Cc1cc(-c2cnc3c(NCCC(F)(F)F)cc(SCCC(C)(C)C)nn23)ccc1C(=O)NC1CC1 [Example 226, N-cyclopropyl-4-{6-[(3,3-dimethylbutyl)sulfanyl]-8-[(3,3,3-trifluoropropyl)amino]imidazo[1,2-b]pyridazin-3-yl}-2-methylbenzamide] was tested. Which IC50 did it give?
Its IC50 is 1.3 nM.

Which IC50 does the source give for COc1ccc(Sc2cc(NCC(C)(C)O)c3ncc(-c4ccc(C(=O)NC5CC5)c(C)c4)n3n2)cc1 [Example 60B, N-cyclopropyl-4-{8-[(2-hydroxy-2-methylpropyl)amino]-6-[(4-methoxyphenyl)sulfanyl]imidazo[1,2-b]pyridazin-3-yl}-2-methylbenzamide] here?
The IC50 was < 0.1 nM.

How did the IC50 turn out when COc1cccc(Nc2cc(NCC(C)(C)O)c3ncc(-c4ccc(C(=O)NC5CC5)c(C)c4)n3n2)c1C [Example 398, N-cyclopropyl-4-{8-[(2-hydroxy-2-methylpropyl)amino]-6-[(3-methoxy-2-methylphenyl)amino]imidazo[1,2-b]pyridazin-3-yl}-2-methylbenzamide] was run?
Its IC50 is 0.4 nM.

How did the IC50 turn out when COc1ccc(Nc2cc(NCCC(F)(F)F)c3ncc(-c4ccc(C(=O)NC5CC5)c(C)c4)n3n2)cn1 [Example 429, N-cyclopropyl-4-{6-[(6-methoxypyridin-3-yl)amino]-8-[(3,3,3-trifluoropropyl)amino]imidazo[1,2-b]pyridazin-3-yl}-2-methylbenzamide] was run?
Its IC50 is 0.1 nM.

For Cc1cc(-c2cnc3c(NCCC(F)(F)F)cc(Sc4ccc(C(F)(F)F)cc4)nn23)ccc1C(=O)NC1CC1 [Example 247, N-cyclopropyl-2-methyl-4-(6-{[4-(trifluoromethyl)phenyl]sulfanyl}-8-[(3,3,3-trifluoropropyl)amino]imidazo[1,2-b]pyridazin-3-yl)benzamide], which IC50 is on record?
The IC50 was 1.7 nM.

— patent US9255100B2 (BAYER INTELLECTUAL PROPERTY GMBH, priority 2010, dated 2016)
